Measurements: PubChem BioAssay (NCI)
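Dose response: 5 concentrations. Exposure: 48 h. Format: 96-well plates. Endpoint: linear interpolation; highest concentration if not reached. GI50: concentration for 50% inhibition of growth. TGI marks complete inhibition of growth.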

Experiments:
Experiment in all cases: NCI anticancer screen, dose series, 48 h
IGROV1 ovarian = tested on: IGROV1 ovarian
NCI-H522 lung = tested on: NCI-H522 lung
OVCAR-4 ovarian = tested on: OVCAR-4 ovarian
OVCAR-8 ovarian = tested on: OVCAR-8 ovarian
RXF 393 renal = tested on: RXF 393 renal
SF-268 CNS = tested on: SF-268 CNS
SK-MEL-28 melanoma = tested on: SK-MEL-28 melanoma
SW-620 colon = tested on: SW-620 colon
UACC-257 melanoma = tested on: UACC-257 melanoma
UACC-62 melanoma = tested on: UACC-62 melanoma

Structure (SMILES) | TGI (IGROV1 ovarian) [µM] | TGI (NCI-H522 lung) [µM] | TGI (OVCAR-4 ovarian) [µM] | TGI (OVCAR-8 ovarian) [µM] | TGI (RXF 393 renal) [µM] | TGI (SF-268 CNS) [µM] | TGI (SK-MEL-28 melanoma) [µM] | TGI (SW-620 colon) [µM] | TGI (UACC-257 melanoma) [µM] | TGI (UACC-62 melanoma) [µM] | GI50 (OVCAR-4 ovarian) [µM] | GI50 (IGROV1 ovarian) [µM] | GI50 (NCI-H522 lung) [µM] | GI50 (OVCAR-8 ovarian) [µM] | GI50 (RXF 393 renal) [µM] | GI50 (SF-268 CNS) [µM] | GI50 (SK-MEL-28 melanoma) [µM] | GI50 (SW-620 colon) [µM] | GI50 (UACC-257 melanoma) [µM] | GI50 (UACC-62 melanoma) [µM]
O=C(O)CC(C(=O)O)C1c2ccccc2-c2ccccc21 (centres undefined) | > 100 | > 100 | > 100 | > 100 | > 100 | > 100 | > 100 | > 100 | > 100 | > 100 | – | – | – | – | – | – | – | – | – | –
O=S(=O)(O)c1cc(N=Nc2cc(S(=O)(=O)O)c3ccccc3c2O)ccc1/C=C/c1ccc(N=Nc2cc(S(=O)(=O)O)c3ccccc3c2O)cc1S(=O)(=O)O | > 873 | > 669 | > 1000 | > 1000 | > 1000 | > 1000 | > 1000 | > 1000 | > 1000 | > 628 | > 807 | – | – | – | – | – | – | – | – | –
Nc1cc(S(=O)(=O)O)cc2cc(S(=O)(=O)O)c(N=Nc3ccc(-c4ccc(N=Nc5c(S(=O)(=O)O)cc6cc(S(=O)(=O)O)cc(N)c6c5O)cc4)cc3)c(O)c12 | > 100 | > 100 | > 100 | > 100 | > 100 | > 100 | > 100 | > 100 | > 100 | – | – | – | – | – | – | – | – | – | – | –
C=C1C(=O)CCC1C(=O)O (centres undefined) | > 100 | > 100 | > 100 | > 100 | > 100 | > 100 | > 100 | > 100 | > 100 | > 100 | – | – | – | – | – | – | – | – | – | –
C=C(C)C(=O)OC1C(C(C)CCCO)=C(CO)CC2OC(=O)C(=C)C21 (centres undefined) | 38.8 | 13.1 | > 100 | > 100 | 27.2 | 48.8 | 49.1 | 28.8 | 39.1 | 31.9 | – | – | – | – | – | – | – | – | – | –
COc1ccc(-c2nn(-c3ccc(NC(=O)Nc4ccc(Cl)c(Cl)c4)cc3)cc2-c2ccncc2)cc1Cl | > 100 | 5.66 | > 100 | > 100 | 2.89 | > 100 | 68.2 | > 100 | 11.6 | 7.33 | 1.79 | 3.44 | 1.39 | 2.72 | 0.862 | 4.19 | 2.7 | 3.31 | 3.14 | 2.1
C=C(C)C1CC2=C(O1)C(=O)c1ccccc1C2=O (centres undefined) | 36.1 | 39.4 | 24 | 35.6 | 33 | – | 34.2 | 48.4 | 26.2 | 30.4 | – | – | – | – | – | – | – | – | – | –
C=C1C(=O)OC2/C=C(\C)C(=O)CC3OC(C)(C)OC3(C)CC(OC(=O)/C(C)=C/C)C12 (centres undefined) | 32.3 | 9.82 | 41.5 | > 68.9 | 36.7 | > 61.3 | 86.5 | 98.7 | 31.5 | 27.8 | – | – | – | – | – | – | – | – | – | –
OC(Cc1ccccc1)(Cc1ccccc1)c1ccccc1 | 33.7 | 32.3 | 32.4 | 39.6 | 29.3 | 29.8 | 47.3 | 52.2 | 36.7 | 31.3 | – | – | – | – | – | – | – | – | – | –
O=C(/C=c1\oc(=O)/c(=C/C(=O)c2ccc(Cl)cc2)oc1=O)c1ccc(Cl)cc1 | > 100 | 72.9 | > 100 | > 100 | > 100 | > 100 | > 100 | – | > 100 | > 100 | – | – | – | – | – | – | – | – | – | –
CC(C)(C)C1(c2ccc(C3(c4ccccc4)Oc4ccccc4S3)[nH]2)Oc2ccccc2S1 (centres undefined) | > 100 | > 100 | – | > 100 | > 100 | > 100 | – | > 100 | > 100 | > 100 | – | – | – | – | – | – | – | – | – | –
COc1cc(C(C)(C)C)cc(OC)c1C(O)(c1c(OC)cc(C(C)(C)C)cc1OC)c1c(OC)cc(C(C)(C)C)cc1OC | 0.873 | 0.768 | 1.06 | – | 0.871 | – | – | 1.55 | 0.702 | – | 0.307 | 0.316 | 0.237 | – | 0.324 | – | – | 0.406 | 0.268 | –
CCN=C=NCCCN(C)C | > 100 | > 100 | > 100 | > 100 | > 100 | > 100 | > 100 | > 100 | > 100 | > 100 | – | – | – | – | – | – | – | – | – | –
O=Nc1ccc(O)c2ncccc12 | 18.9 | 3.58 | 24.1 | > 34.1 | 5.61 | 17.2 | 17.3 | 18.2 | 19.4 | 2.34 | – | – | – | – | – | – | – | – | – | –
C[N+]1(C)CCOC(O)(c2ccccc2)C1 (centres undefined) | > 100 | > 100 | > 100 | > 100 | > 100 | > 100 | > 100 | > 100 | > 100 | > 100 | – | – | – | – | – | – | – | – | – | –
Cc1ccc(P(c2ccc(C)cc2)c2ccc(C)cc2)cc1 | 53.6 | 28.2 | 80.3 | 59.6 | 30 | > 100 | 56 | > 100 | 59.3 | 52.3 | – | – | – | – | – | – | – | – | – | –
O=[N+]([O-])c1ccc(/C=N\Nc2ccc([N+](=O)[O-])cn2)cc1 | > 100 | > 100 | > 100 | > 100 | > 100 | > 100 | > 100 | > 100 | > 100 | > 100 | – | – | – | – | – | – | – | – | – | –
C=C1CC23CCC4C(C)(C(=O)O)CCCC4(C)C2CCC1C3 (centres undefined) | 94.9 | 89.7 | > 100 | > 100 | > 100 | > 100 | > 100 | > 100 | > 100 | > 100 | – | – | – | – | – | – | – | – | – | –
COc1ccc2[nH]c3c([N+](=O)[O-])ccc(Cl)c3c(=O)c2c1 | 18.6 | 36.9 | 28.7 | > 74 | 32.2 | 53.6 | 98.1 | 42.8 | 16.5 | 34.5 | – | – | – | – | – | – | – | – | – | –
COC1/C=C\OC2(C)Oc3c(C)c(O)c4c(O)c(c(/C=N\OCCCc5ccccc5)c(O)c4c3C2=O)NC(=O)/C(C)=C\C=C/C(C)C(O)C(C)C(O)C(C)C(OC(C)=O)C1C (centres undefined) | 6.74 | 10.7 | 12.6 | 17.8 | 6.92 | 18.3 | 4.65 | 18 | 18.6 | 10.1 | – | – | – | – | – | – | – | – | – | –
C=C(C)[C@@H]1CC[C@]2(C(=O)Nc3ccccn3)CC[C@]3(C)[C@H](CC[C@@H]4[C@@]5(C)CCCNC(C)(C)[C@@H]5CC[C@]43C)[C@@H]12 | – | – | 2.99 | – | 3.27 | 4.79 | 3.13 | 3.51 | – | 3.12 | 1.44 | – | – | – | 1.79 | 1.95 | 1.69 | 1.75 | – | 1.64
CCN(CC)C(=S)SC(=S)N(CC)CC | > 100 | 18.2 | > 100 | > 100 | > 100 | > 100 | > 100 | > 100 | > 100 | > 93.1 | – | – | – | – | – | – | – | – | – | –
CC(=O)c1cccc(Nc2c3ccccc3nc3occc23)c1 | 9.58 | 4.62 | 6.67 | > 100 | 6.73 | > 100 | 7.97 | – | 25.5 | 27.7 | – | – | – | – | – | – | – | – | – | –
C=C(CN(C)C)C(=O)c1ccc(C)cc1C | 17.7 | 14.4 | 33.5 | 37.4 | 9.4 | 35.4 | 20.4 | 13.5 | 24.8 | 31.5 | – | – | – | – | – | – | – | – | – | –
CC(C)=CCc1c(O)ccc2c1OC1c3ccc(O)c(CC=C(C)C)c3OCC21 (centres undefined) | 25.8 | 25.5 | 23.6 | 52.6 | 22.1 | 27 | 28.7 | 22.5 | 29 | 18.7 | – | – | – | – | – | – | – | – | – | –
C[C@H](C(=O)N[C@@H](Cc1ccc(-c2ccccc2)cc1)C(=O)NC1CC(C)(C)N(C)C(C)(C)C1)c1ccc(-c2ccccc2)c(F)c1 | – | – | 2.84 | – | 2.28 | – | 3.18 | – | 3.8 | 3.63 | 0.818 | – | – | – | 0.884 | – | 1.67 | – | 2.12 | 1.92
